Measurements taken from patent US9421208B2, “Methods for the treatment of solid tumors” (Pharmacyclics LLC, priority 2013, dated 2016).
Entries after “also recorded” stand apart in the source; their conditions may differ.

Tested on: lung tumors in Grg1 transgenic mice
Assay: Tumor development in Grg1 transgenic mouse model of non-small cell lung cancer
Format: in vivo
Conditions: for tumors visible on whole lung lobes: 3 month mice after 4 weeks of treatment (FIG. 8); for average number of surface tumors per mouse: abexinostat 12 mg/kg BID i.p., ibrutinib ~22 mg/kg/day in drinking water; for tumor histology in lung tissue sections: 6 month mice after 4 weeks of treatment; for tumors visible on whole left lung lobes: 6 month mice after 4 weeks of treatment (FIG. 7); for average number of large tumors (over 1 mm in diameter) per mouse: 6 month samples, tissue sections of left lung lobe
Procedure: The aim of the experiment is to evaluate the effect of two drugs on tumor development in a mouse model of non-small cell lung cancer.
Grg1 transgenic mice were used to evaluate the drugs. Grg1 transgenic mice overexpress the Groucho-related gene 1 (Grg1). The mice develop lung tumors that resemble human non-small cell lung cancer. Tumors initiate at 1 month of age and progress to invasive adenocarcinoma by 8 months of age. The drugs were administered to 2 month-old mice or to 5 month-old mice, and mice were treated for 4 weeks. The former group is referred to as the 3 month samples and the latter as the 6 month samples.
Mice were bred to generate double transgenic (Grg1/Cre recombinase) mice on a CD1 background. Four groups of female double transgenic mice were established:
At least 8 mice in each group were treated at 2 months old and 8 mice in each group were treated at 5 months old. Treatments lasted 4 weeks, and mice were sacrificed at 3 months and 6 months. Therefore samples are referred to as 3 month samples or 6 month samples.
Abexinostat was administered by intraperitoneal (i.p.) injection, twice per day for five days each week. Mice were weighed and injected with 6 μl per gram body weight of a 1 mg/ml solution. The dosage was 12 mg/kg BID.
Mice were treated for 4 weeks. After treatment, mice were euthanized and lung tissue was examined.
For quantitation of tumors, the total visible tumors on the lung surface were counted using a dissecting microscope. In addition, the left lung lobe was fixed in 4% PFA, paraffin-embedded and 5 μm sections were taken for 100 μm at two levels. The first level began 30 μm below the lung surface and the second level began 130 μm below the lung surface. Alternate slides were H&E stained, and tumors were detected and counted using a dissecting microscope. Tumor diameter was measured using an inverted microscope and reticule.

[1] = 3 month samples: treated 4 weeks from 2 months
[2] = 6 month samples: treated 4 weeks from 5 months

Row | Compound | tumors visible on whole lung lobes | average number of surface tumors per mouse [1] | tumor histology in lung tissue sections | tumors visible on whole left lung lobes | average number of large tumors (over 1 mm in diameter) per mouse | average number of surface tumors per mouse [2] | tumor diameter in 6 month sections (6 month sections (FIG. 9))
1 | CN(C)Cc1c(C(=O)NCCOc2ccc(C(=O)NO)cc2)oc2ccccc12 [Abexinostat, 3-[(dimethylamino)methyl]-N-{2-[4-(hydroxycarbamoyl)phenoxy]ethyl}-1-benzofuran-2-carboxamide] | one small tumor is visible | 3.0 | high number of apoptotic cells; also recorded: lymphocyte infiltration, necrosis and large areas with apoptotic cells | medium and small tumors are visible | 0.5 | 4.6 | 
2 | C=CC(=O)N1CCC[C@@H](n2nc(-c3ccc(Oc4ccccc4)cc3)c3c(N)ncnc32)C1 [Ibrutinib, (R)-1-(3-(4-amino-3-(4-phenoxyphenyl)-1H-pyrazolo[3,4-d]pyrimidin-1-yl)piperidin-1-yl)prop-2-en-1-one] | one small tumor is visible | 2.6 | lack the high number of apoptotic macrophages; also recorded: less tumor necrosis than the control samples; also recorded: lymphocyte infiltration but not the apoptotic macrophages seen in the control and in Abexinostat-treated mice | medium and small tumors are visible | 0.5 | 7.6 | no small tumors in Ib-treated sections, just one large tumor
